The values below come from patent US9943599B2, “Therapeutic applications of calcium electroporation to effectively induce tumor necrosis” (Herlev Hospital, priority 2011, dated 2018).

In data set [1] the test system is basocellular carcinoma. The data set can be described thus: Case study, calcium electroporation in a human patient. The format is in vivo. Here is the method:
In a patient with multiple basocellular carcinomas, where all known treatment options had been tried and the patient was still in need of treatment, calcium electroporation was tried.
In this patient, lesions that were verified by biopsy to contain basocellular carcinoma were treated with different doses of calcium chloride or calcium glubionate with electroporation. Three lesions were treated, measuring 0.8 to 2 cm, by 0.1-0.2 mm deep.
After local anaesthesia (Mir et al), calcium was injected intratumorally using a thin needle and 1 ml syringe. Volumes of resp. 0.1, 0.7 and 3.7 times the calculated tumor volume (in this case calculated as diameter times perpendicular diameter times depth due to the shape of the tumors) was injected.
Immediately after injection (within 45 seconds), electroporation was performed using a square wave pulse generator (CLINIPORATOR®, IGEA, Modena, Italy) and needle electrodes with parallel arrays 0.4 cm apart. Eight pulses of a duration of 0.1 ms and 1 kV/cm (voltage to electrode distance ratio) were administered immediately after calcium injection.

Data set [2] deals with LPB (murine sarcoma) tumors. The data set can be described thus: Fraction of necrosis after calcium electroporation, LPB tumors. It is filed as in vivo, NMRI-Foxn1^nu mice. As for the experimental part:
LPB, a murine sarcoma cell line, B16, a murine malignant melanoma cell line, MDA-MB231, human a breast cancer cell line, HT29, a human colon cancer cell line, and SW780, a human bladder cancer cell line were used for the in vivo experiment. The cells were tested by rapid MAP27 panel (Taconic, Hudson N.Y.) before use without signs of infection. 2×10^5 cells (B16), 8×10^5 cells (LPB), 2.5×10^6 cells (MDA-MB231), and 5×10^6 cells (HT29 and SW780) in 100 μl PBS were injected subcutaneously in the flank of NMRI-Foxn1^nu mice (Harlan, Indianapolis, Ind.) that were 9-11 weeks old. Mice were randomised at a tumor volume above 85 mm^3 and tumors were treated with injection of isotonic calcium-chloride solution (168 mM CaCI2) and electroporation (8 pulses of 1.0 kv/cm for 100 μs and a frequency of 1 Hz) using a 6 mm plate electrode and a square wave electroporator (CLINIPORATOR®, IGEA, Modena, Italy). Tumor volume was calculated as ab^2n/6, where a is the largest diameter and b is the largest diameter perpendicular to a. The injected volume was half of the tumor volume. […] The fraction of necrosis within the tumor was estimated from HE-sections by stereological point counting using a light microscope, evaluated by a pathologist, blinded with respect to treatment status.
The difference in fraction of necrosis at different time after treatment was assessed using student's t-test.

Data set [3] has as its system MDA-MB231 (human breast cancer) tumors. The data set can be described thus: Fraction of tumor necrosis at different calcium concentrations and injection volumes. It is filed as in vivo, NMRI-Foxn1nu mice. The following applies: electroporation, 7 days. As for the experimental part:
MDA-MB231, a human breast cancer cell line was used for the in vivo experiments. The cells were tested by rapid MAP27 panel (Taconic, Hudson N.Y.) before use without signs of infection. Cells were maintained in vitro as described in Example 1. 2.5×10^6 cells/100 μl PBS were injected subcutaneously in the flank of NMRI-Foxn1nu mice (Harlan, Indianapolis, Ind.). Tumor pieces are transplanted twice from donor mice to the flank of nude mice that were 13-19 weeks old. HYPNORM™-DORMICUM™ (fentanyl/fluanisone/midazolam; VetaPharma, Leeds, U K and Roche, Basel, Switzerland) was used for anesthesia complemented with RIMADYL® (Carprofen) (Pfizer ApS, Ballerup, Denmark) as well as lidocaine (Region Hovedstadens Apotek, Herlev, Denmark) in the incision. Mice were randomised at a tumor volume above 85 mm3 and tumors were treated with 1) injection of calcium-chloride solution and electroporation (8 pulses of 1.0 kV/cm for 100 μs and a frequency of 1 Hz) using a 6 mm plate electrode and a square wave electroporator (CLINIPORATOR®, IGEA, Modena, Italy), 2) calcium-free physiological saline injection and electroporation (same parameters as above), 3) injection of calcium-chloride, 4) calcium-free physiological saline injection, or 5) untreated but with needle inserted in the tumor without injection and with electrodes put on the tumor without pulses applied. […] Tumor volume was calculated as ab2n/6, where a is the largest diameter and b is the largest diameter perpendicular to a. The solutions were injected through the side of the firm tumor and the needle was moved around inside the tumor to secure injection all over the tumor. Tumors were removed 7 days after treatment, fixated in formalin (10% neutrally buffered) and paraffin embedded. Subsequently, tissue sections with a thickness of 3 μm were HE-stained according to the routine procedure of the department. The fraction of necrosis within the tumor was estimated from HE-sections using a light microscope, evaluated by a pathologist, blinded with respect to treatment status.

In the case of `[Ca+2].[Cl-].[Cl-]` [calcium chloride], the “normal skin reaction (clinical observation)” value in data set [1] (highest volume (3.7 times tumor volume), with electroporation) is given as “necrosis of normal skin”. Besides, the “tumor response (biopsy)” value was “did not lead to changes” in data set [1] (injected volume 0.1 of tumor volume, with electroporation) and “efficient tumor cell kill” in data set [1] (injected volume 0.7 of tumor volume, electroporation 8 pulses 0.1 ms 1 kV/cm). Besides, in data set [2] (168 mM CaCl2, half tumor volume, electroporation, first days after treatment), the “fraction of necrosis in tumors, course” value is recorded as “progressive necrosis”. Besides, in data set [2] (6 days after the treatment), the tumor re-growth result is on record as “re-growth”. Besides, the “fraction of necrosis in tumors” value was “higher than the fraction of necrosis in untreated tumors” in data set [3] (100 mM to 500 mM calcium, constant injection volume 50% of tumor volume) and “higher than the fraction of necrosis in untreated tumors” in data set [3] (injection volumes 20% to 80% of tumor volume, constant 168 mM calcium). Also, the “injection volume with highest fraction of necrosis” value in data set [3] (168 mM calcium) is listed as 40 % of the tumor volume.
